Measurements reported in ChEMBL document CHEMBL4507277.

Assays:
[1] = target: Activin receptor type-2A (Homo sapiens) (UniProt P27037); conditions: Compound concentration 1000.0 nM
[2] = target: Bone morphogenetic protein receptor type-2 (Homo sapiens) (UniProt Q13873); conditions: Compound concentration 1000.0 nM
[3] = target: Serine/threonine-protein kinase MARK1 (Homo sapiens) (UniProt Q9P0L2); conditions: Compound concentration 1000.0 nM
[4] = target: Cyclin-dependent kinase 18 (Homo sapiens) (UniProt Q07002); conditions: Compound concentration 1000.0 nM
[5] = target: Serine/threonine-protein kinase VRK2 (Homo sapiens) (UniProt Q86Y07); conditions: Compound concentration 1000.0 nM
[6] = target: 5-hydroxytryptamine receptor 2C (Homo sapiens) (UniProt P28335); conditions: Compound concentration 10.0 uM
[7] = target: Mitogen-activated protein kinase kinase kinase 11 (Homo sapiens) (UniProt Q16584); conditions: Compound concentration 1000.0 nM
[8] = target: Aurora kinase C (Homo sapiens) (UniProt Q9UQB9); conditions: Compound concentration 1000.0 nM
[9] = target: Mast/stem cell growth factor receptor Kit (Homo sapiens) (UniProt P10721); conditions: Compound concentration 1000.0 nM
Sequence of Mast/stem cell growth factor receptor Kit (Homo sapiens) (P10721 whole entry): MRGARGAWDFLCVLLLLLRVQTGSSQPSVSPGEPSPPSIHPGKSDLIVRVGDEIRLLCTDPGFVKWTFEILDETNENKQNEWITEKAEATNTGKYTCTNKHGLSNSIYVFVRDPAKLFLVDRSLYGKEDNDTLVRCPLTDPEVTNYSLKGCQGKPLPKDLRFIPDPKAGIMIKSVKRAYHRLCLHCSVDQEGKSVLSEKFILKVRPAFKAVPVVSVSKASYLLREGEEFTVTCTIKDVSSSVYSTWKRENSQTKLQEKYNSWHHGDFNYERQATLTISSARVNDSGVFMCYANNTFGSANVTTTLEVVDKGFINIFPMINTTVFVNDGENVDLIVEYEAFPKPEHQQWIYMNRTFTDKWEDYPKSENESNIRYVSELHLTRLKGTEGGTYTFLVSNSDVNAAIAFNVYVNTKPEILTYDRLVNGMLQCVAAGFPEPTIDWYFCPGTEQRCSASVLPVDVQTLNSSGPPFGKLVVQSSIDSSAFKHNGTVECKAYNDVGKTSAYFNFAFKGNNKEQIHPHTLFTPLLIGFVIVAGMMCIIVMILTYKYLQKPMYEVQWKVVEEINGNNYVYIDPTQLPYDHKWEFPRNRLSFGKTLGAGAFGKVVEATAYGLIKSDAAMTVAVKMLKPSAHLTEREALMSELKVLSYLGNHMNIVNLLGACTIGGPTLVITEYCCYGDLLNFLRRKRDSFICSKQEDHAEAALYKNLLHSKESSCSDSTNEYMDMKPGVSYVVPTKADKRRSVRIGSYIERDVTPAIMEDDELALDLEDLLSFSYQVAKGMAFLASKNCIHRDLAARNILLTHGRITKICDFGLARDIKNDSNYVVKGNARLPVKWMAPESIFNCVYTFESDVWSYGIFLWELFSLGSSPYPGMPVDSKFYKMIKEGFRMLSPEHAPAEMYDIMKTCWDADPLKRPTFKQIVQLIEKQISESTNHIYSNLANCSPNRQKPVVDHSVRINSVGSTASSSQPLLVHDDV

[10] = target: Mitogen-activated protein kinase kinase kinase 12 (Homo sapiens) (UniProt Q12852); conditions: Compound concentration 1000.0 nM
[11] = system: Mast/stem cell growth factor receptor Kit (Homo sapiens), P10721 [V559D,T670I]; conditions: Compound concentration 1000.0 nM
Sequence of Mast/stem cell growth factor receptor Kit (Homo sapiens), P10721 [V559D,T670I] (P10721 whole entry V559D/T670I): as the sequence (P10721 whole entry) above, with V559D, T670I counted along it

[12] = target: Testis-specific serine/threonine-protein kinase 1 (Homo sapiens) (UniProt Q9BXA7); conditions: Compound concentration 1000.0 nM
[13] = target: Ephrin type-A receptor 6 (Homo sapiens) (UniProt Q9UF33); conditions: Compound concentration 1000.0 nM
[14] = target: Muscarinic acetylcholine receptor M4 (Homo sapiens) (UniProt P08173); conditions: Compound concentration 10.0 uM
[15] = target: Histamine H3 receptor (Homo sapiens) (UniProt Q9Y5N1); conditions: Compound concentration 10.0 uM
[16] = target: 5-hydroxytryptamine receptor 2A (Homo sapiens) (UniProt P28223); conditions: Compound concentration 10.0 uM
[17] = target: Tyrosine-protein kinase ZAP-70 (Homo sapiens) (UniProt P43403); conditions: Compound concentration 1000.0 nM
[18] = target: Beta-adrenergic receptor kinase 1 (Homo sapiens) (UniProt P25098); conditions: Compound concentration 1000.0 nM
[19] = target: cGMP-dependent protein kinase 1 (Homo sapiens) (UniProt Q13976); conditions: Compound concentration 1000.0 nM
[20] = target: Hepatocyte growth factor receptor (Homo sapiens) (UniProt P08581); conditions: Compound concentration 1000.0 nM
[21] = system: Tyrosine-protein kinase ABL1 (Homo sapiens), P00519 [F317I]; conditions: Compound concentration 1000.0 nM
[22] = target: Tyrosine-protein kinase Srms (Homo sapiens) (UniProt Q9H3Y6); conditions: Compound concentration 1000.0 nM
[23] = target: Ephrin type-A receptor 7 (Homo sapiens) (UniProt Q15375); conditions: Compound concentration 1000.0 nM
Sequence of Ephrin type-A receptor 7 (Homo sapiens) (Q15375 28-998 limits assumed): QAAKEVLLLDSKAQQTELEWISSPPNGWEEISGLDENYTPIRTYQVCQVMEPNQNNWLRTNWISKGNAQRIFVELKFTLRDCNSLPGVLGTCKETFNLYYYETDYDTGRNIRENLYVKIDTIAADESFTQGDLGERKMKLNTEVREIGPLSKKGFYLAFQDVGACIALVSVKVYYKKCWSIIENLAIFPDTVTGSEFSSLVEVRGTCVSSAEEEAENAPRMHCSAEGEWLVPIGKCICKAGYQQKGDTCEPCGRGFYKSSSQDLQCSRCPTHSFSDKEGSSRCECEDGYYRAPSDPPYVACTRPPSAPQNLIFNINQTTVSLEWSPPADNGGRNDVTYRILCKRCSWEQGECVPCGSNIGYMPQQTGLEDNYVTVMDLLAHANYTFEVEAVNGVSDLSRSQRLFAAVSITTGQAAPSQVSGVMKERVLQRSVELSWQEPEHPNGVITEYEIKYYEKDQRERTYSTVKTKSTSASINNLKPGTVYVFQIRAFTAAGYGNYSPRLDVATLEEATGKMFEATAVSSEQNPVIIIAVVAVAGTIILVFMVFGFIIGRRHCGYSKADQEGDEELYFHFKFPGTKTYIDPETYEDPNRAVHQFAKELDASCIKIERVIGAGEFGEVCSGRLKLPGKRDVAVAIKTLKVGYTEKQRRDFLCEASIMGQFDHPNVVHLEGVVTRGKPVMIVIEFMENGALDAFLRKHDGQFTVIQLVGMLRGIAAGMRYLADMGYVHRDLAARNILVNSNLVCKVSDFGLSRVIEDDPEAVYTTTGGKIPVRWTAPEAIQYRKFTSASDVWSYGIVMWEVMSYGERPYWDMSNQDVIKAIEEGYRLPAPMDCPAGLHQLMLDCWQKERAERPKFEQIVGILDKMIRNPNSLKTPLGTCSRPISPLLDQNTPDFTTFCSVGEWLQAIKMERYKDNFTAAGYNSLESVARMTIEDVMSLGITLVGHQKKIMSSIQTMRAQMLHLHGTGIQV

[24] = target: Mitogen-activated protein kinase kinase kinase 4 (Homo sapiens) (UniProt Q9Y6R4); conditions: Compound concentration 1000.0 nM
[25] = target: Phosphatidylinositol 3-kinase C2 domain-containing subunit gamma (Homo sapiens) (UniProt O75747); conditions: Compound concentration 1000.0 nM
[26] = target: Serine/threonine-protein kinase 36 (Homo sapiens) (UniProt Q9NRP7); conditions: Compound concentration 1000.0 nM
Sequence of Serine/threonine-protein kinase 36 (Homo sapiens) (Q9NRP7 whole entry): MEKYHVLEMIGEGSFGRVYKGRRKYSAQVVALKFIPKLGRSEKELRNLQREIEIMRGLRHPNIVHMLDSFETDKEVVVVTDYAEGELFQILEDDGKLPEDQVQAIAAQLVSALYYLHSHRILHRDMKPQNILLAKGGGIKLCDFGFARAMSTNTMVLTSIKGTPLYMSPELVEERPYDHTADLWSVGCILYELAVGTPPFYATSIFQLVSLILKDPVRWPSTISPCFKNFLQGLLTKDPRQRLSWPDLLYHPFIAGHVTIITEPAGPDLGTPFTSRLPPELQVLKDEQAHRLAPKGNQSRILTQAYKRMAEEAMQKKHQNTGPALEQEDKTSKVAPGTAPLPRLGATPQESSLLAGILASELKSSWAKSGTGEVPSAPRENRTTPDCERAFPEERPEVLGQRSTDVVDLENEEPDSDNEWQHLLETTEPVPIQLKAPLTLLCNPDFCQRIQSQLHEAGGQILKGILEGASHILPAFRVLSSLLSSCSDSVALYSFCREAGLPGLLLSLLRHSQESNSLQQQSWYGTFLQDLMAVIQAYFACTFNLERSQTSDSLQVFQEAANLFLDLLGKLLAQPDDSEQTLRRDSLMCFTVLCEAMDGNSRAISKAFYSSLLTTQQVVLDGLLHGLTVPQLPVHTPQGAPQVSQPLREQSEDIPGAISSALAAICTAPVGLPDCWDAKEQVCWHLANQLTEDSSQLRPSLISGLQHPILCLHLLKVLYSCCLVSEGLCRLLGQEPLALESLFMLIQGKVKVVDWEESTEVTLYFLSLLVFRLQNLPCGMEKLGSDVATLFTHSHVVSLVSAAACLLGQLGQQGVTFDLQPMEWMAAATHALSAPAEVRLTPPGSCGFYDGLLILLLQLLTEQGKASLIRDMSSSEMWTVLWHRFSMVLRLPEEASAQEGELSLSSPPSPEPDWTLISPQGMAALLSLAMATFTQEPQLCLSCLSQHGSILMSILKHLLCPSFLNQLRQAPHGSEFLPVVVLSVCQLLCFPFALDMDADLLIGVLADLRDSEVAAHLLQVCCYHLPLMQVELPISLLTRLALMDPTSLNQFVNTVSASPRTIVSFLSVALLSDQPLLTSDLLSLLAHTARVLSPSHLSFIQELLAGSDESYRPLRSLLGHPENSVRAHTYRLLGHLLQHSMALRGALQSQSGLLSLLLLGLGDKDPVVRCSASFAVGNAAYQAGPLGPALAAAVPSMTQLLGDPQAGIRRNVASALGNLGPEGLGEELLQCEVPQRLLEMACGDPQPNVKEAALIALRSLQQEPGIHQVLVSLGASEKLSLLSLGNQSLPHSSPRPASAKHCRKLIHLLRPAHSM

[27] = target: MAP kinase-interacting serine/threonine-protein kinase 2 (Homo sapiens) (UniProt Q9HBH9); conditions: Compound concentration 1000.0 nM
[28] = target: Ephrin type-B receptor 2 (Homo sapiens) (UniProt P29323); conditions: Compound concentration 1000.0 nM
[29] = target: Tyrosine-protein kinase Lyn (Homo sapiens) (UniProt P07948); conditions: Compound concentration 1000.0 nM
[30] = target: 5-hydroxytryptamine receptor 2B (Homo sapiens) (UniProt P41595); conditions: Compound concentration 10.0 uM
[31] = system: Tyrosine-protein kinase ABL1 (Homo sapiens), P00519 [T315I]; conditions: Compound concentration 1000.0 nM
[32] = target: Mitogen-activated protein kinase kinase kinase 19 (Homo sapiens) (UniProt Q56UN5); conditions: Compound concentration 1000.0 nM
[33] = target: Casein kinase I isoform delta (Homo sapiens) (UniProt P48730); conditions: Compound concentration 1000.0 nM
[34] = system: Mast/stem cell growth factor receptor Kit (Homo sapiens), P10721 [V559D]; conditions: Compound concentration 1000.0 nM
Sequence of Mast/stem cell growth factor receptor Kit (Homo sapiens), P10721 [V559D] (P10721 whole entry V559D): as the sequence (P10721 whole entry) above, with V559D counted along it

[35] = target: Ribosomal protein S6 kinase alpha-5 (Homo sapiens) (UniProt O75582); conditions: Compound concentration 1000.0 nM
[36] = target: Protein kinase C delta type (Homo sapiens) (UniProt Q05655); conditions: Compound concentration 1000.0 nM
[37] = target: Serine/threonine-protein kinase TBK1 (Homo sapiens) (UniProt Q9UHD2); conditions: Compound concentration 1000.0 nM
[38] = system: Leucine-rich repeat serine/threonine-protein kinase 2 (Homo sapiens), Q5S007 [G2019S]; conditions: Compound concentration 1000.0 nM
[39] = target: Serine/threonine-protein kinase Nek6 (Homo sapiens) (UniProt Q9HC98); conditions: Compound concentration 1000.0 nM
[40] = target: Serine/threonine-protein kinase RIO2 (Homo sapiens) (UniProt Q9BVS4); conditions: Compound concentration 1000.0 nM
[41] = target: Calcium/calmodulin-dependent protein kinase type 1 (Homo sapiens) (UniProt Q14012); conditions: Compound concentration 1000.0 nM
[42] = target: Myosin light chain kinase 2, skeletal/cardiac muscle (Homo sapiens) (UniProt Q9H1R3); conditions: Compound concentration 1000.0 nM
[43] = target: Tyrosine-protein kinase ITK/TSK (Homo sapiens) (UniProt Q08881); conditions: Compound concentration 1000.0 nM
[44] = target: Tyrosine-protein kinase receptor TYRO3 (Homo sapiens) (UniProt Q06418); conditions: Compound concentration 1000.0 nM
[45] = target: Phosphatidylinositol 4,5-bisphosphate 3-kinase catalytic subunit delta isoform (Homo sapiens) (UniProt O00329); conditions: Compound concentration 1000.0 nM

Sequence of Bone morphogenetic protein receptor type-2 (Homo sapiens) (Q13873 whole entry): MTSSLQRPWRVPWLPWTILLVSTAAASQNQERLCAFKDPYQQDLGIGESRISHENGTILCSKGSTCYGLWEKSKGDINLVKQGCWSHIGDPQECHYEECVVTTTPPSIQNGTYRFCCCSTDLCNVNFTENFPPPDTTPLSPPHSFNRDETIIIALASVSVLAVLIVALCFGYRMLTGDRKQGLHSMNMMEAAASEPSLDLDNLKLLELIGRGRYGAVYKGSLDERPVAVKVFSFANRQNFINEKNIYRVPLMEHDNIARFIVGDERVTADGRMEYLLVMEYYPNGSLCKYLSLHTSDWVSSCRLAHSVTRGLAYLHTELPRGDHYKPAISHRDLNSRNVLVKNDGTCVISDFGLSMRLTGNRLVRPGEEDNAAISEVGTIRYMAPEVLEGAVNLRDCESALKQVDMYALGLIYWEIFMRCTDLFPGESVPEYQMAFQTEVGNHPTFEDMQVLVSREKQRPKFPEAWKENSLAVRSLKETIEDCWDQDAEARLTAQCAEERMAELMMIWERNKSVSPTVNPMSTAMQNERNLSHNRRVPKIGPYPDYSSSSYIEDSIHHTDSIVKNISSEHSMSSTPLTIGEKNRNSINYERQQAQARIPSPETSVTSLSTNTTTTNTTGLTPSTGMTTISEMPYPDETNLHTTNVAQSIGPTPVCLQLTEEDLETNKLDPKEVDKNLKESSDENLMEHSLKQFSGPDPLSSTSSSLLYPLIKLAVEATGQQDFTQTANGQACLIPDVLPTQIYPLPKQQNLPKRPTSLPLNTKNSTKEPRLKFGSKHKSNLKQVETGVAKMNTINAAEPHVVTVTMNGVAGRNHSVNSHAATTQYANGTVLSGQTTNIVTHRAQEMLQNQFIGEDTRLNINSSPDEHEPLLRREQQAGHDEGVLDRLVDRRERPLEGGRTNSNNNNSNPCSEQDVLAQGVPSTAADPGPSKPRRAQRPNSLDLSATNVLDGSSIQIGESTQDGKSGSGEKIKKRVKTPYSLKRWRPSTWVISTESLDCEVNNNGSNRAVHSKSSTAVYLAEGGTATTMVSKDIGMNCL
Sequence of Activin receptor type-2A (Homo sapiens) (P27037 whole entry): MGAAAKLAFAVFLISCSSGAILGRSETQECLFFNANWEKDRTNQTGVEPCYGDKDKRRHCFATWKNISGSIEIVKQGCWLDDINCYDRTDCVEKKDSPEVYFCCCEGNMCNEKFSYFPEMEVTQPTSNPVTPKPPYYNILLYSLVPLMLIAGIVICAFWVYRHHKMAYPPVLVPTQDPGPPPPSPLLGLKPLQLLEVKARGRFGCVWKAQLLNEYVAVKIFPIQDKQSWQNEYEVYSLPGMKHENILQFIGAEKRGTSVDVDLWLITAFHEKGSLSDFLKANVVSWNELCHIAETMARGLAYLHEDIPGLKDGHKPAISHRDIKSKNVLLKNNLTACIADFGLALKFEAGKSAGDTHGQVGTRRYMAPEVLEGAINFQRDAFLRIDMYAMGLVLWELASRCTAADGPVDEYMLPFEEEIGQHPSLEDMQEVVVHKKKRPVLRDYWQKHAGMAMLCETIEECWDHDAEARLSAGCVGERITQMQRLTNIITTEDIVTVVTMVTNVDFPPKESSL

CCS(=O)(=O)c1cc2cc(C[C@@](O)(CC(C)(C)c3ccc(F)cc3C(N)=O)C(F)(F)F)[nH]c2cn1
inactive: residual activity [1] 94% | residual activity [2] 91% | residual activity [3] 100% | residual activity [4] 100% | residual activity [5] 80% | inhibition [6] 7.33% | residual activity [7] 92% | residual activity [8] 81% | residual activity [9] 100% | residual activity [10] 83% | residual activity [11] 100% | residual activity [12] 96% | residual activity [13] 100% | inhibition [14] 18.2% | inhibition [15] 11.7% | inhibition [16] 14.1% | residual activity [17] 72% | residual activity [18] 50% | residual activity [19] 89% | residual activity [20] 100% | residual activity [21] 78% | residual activity [22] 72% | residual activity [23] 94% | residual activity [24] 93% | residual activity [25] 100% | residual activity [26] 98% | residual activity [27] 87% | residual activity [28] 95% | residual activity [29] 100% | inhibition [30] -7.85% | residual activity [31] 74% | residual activity [32] 76% | residual activity [33] 100% | residual activity [34] 100% | residual activity [35] 100% | residual activity [36] 99% | residual activity [37] 87% | residual activity [38] 100% | residual activity [39] 100% | residual activity [40] 95% | residual activity [41] 57% | residual activity [42] 100% | residual activity [43] 96% | residual activity [44] 92% | residual activity [45] 90%

CCS(=O)(=O)c1cc2cc(C[C@](O)(CC(C)(C)c3ccc(F)cc3C(N)=O)C(F)(F)F)[nH]c2cn1
inactive: residual activity [1] 100% | residual activity [2] 100% | residual activity [3] 100% | residual activity [4] 100% | residual activity [5] 100% | inhibition [6] 0.64% | residual activity [7] 100% | residual activity [8] 91% | residual activity [9] 89% | residual activity [10] 100% | residual activity [11] 100% | residual activity [12] 94% | residual activity [13] 100% | inhibition [14] 13.1% | inhibition [15] 11.7% | inhibition [16] 12.6% | residual activity [17] 71% | residual activity [18] 84% | residual activity [19] 92% | residual activity [20] 98% | residual activity [21] 95% | residual activity [22] 83% | residual activity [23] 86% | residual activity [24] 93% | residual activity [25] 100% | residual activity [26] 100% | residual activity [27] 100% | residual activity [28] 100% | residual activity [29] 100% | inhibition [30] 26.1% | residual activity [31] 85% | residual activity [32] 93% | residual activity [33] 96% | residual activity [34] 100% | residual activity [35] 94% | residual activity [36] 100% | residual activity [37] 93% | residual activity [38] 100% | residual activity [39] 100% | residual activity [40] 100% | residual activity [41] 86% | residual activity [42] 98% | residual activity [43] 100% | residual activity [44] 81% | residual activity [45] 89%
